Laboratory results from ChEMBL document CHEMBL3885881, “DrugMatrix”.

Organism: Rattus norvegicus
Assay: DrugMatrix - Regimen: Daily Repeat
Type: toxicity, organism-based, Sprague-Dawley
Set-up: regimen Daily Repeat, gender Male, age 6-8 weeks
Details: in vivo, po, route oral GAVAGE, vehicle .5 % CMC; for ABSOLUTE BASOPHIL / ABSOLUTE EOSINOPHIL / ABSOLUTE LYMPHOCYTE / ABSOLUTE MONOCYTE / ABSOLUTE SEGMENTED NEUTROPHIL / BASOPHIL / EOSINOPHIL / ERYTHROCYTE COUNT / HEMATOCRIT / HEMOGLOBIN / LEUKOCYTE COUNT / LYMPHOCYTE / MEAN CORPUSCULAR HEMOGLOBIN / MEAN CORPUSCULAR HEMOGLOBIN CONCENTRATION / MEAN CORPUSCULAR VOLUME / MONOCYTE / NEUTROPHIL / NUCLEATED RED BLOOD CELLS / PLATELET COUNT: tissue Blood; for ALANINE AMINOTRANSFERASE / ALBUMIN / ALKALINE PHOSPHATASE / ASPARTATE AMINOTRANSFERASE / BLOOD UREA NITROGEN / CARBON DIOXIDE / CHLORIDE / CHOLESTEROL / CREATINE PHOSPHOKINASE / CREATININE / GLUCOSE / LACTATE DEHYDROGENASE / LIPASE / PHOSPHORUS / POTASSIUM / SODIUM / TOTAL BILIRUBIN / TOTAL PROTEIN / URIC ACID: tissue Plasma
[1] = 100 mg/kg, 72 h, dose level Low, time 3 day
[2] = 100 mg/kg, 120 h, dose level Low, time 5 day
[3] = 1000 mg/kg, 72 h, dose level High, time 3 day
[4] = 1000 mg/kg, 120 h, dose level High, time 5 day

CC1CN(c2cc3c(cc2F)c(=O)c(C(=O)O)cn3-c2ccc(F)cc2F)CCN1 (configuration not stated) [TEMAFLOXACIN]
ABSOLUTE BASOPHIL [1]: 0 CELLS/uL
ABSOLUTE EOSINOPHIL [1]: 0 CELLS/uL
ABSOLUTE LYMPHOCYTE [1]: 10703 CELLS/uL
ABSOLUTE MONOCYTE [1]: 236.33 CELLS/uL
ABSOLUTE SEGMENTED NEUTROPHIL [1]: 1027.33 CELLS/uL
BASOPHIL [1]: 0%
EOSINOPHIL [1]: 0%
ERYTHROCYTE COUNT [1]: 5.1 x10E6/uL
HEMATOCRIT [1]: 32.03%
HEMOGLOBIN [1]: 12.13 G/DL
LEUKOCYTE COUNT [1]: 11.97 x10E3/uL
LYMPHOCYTE [1]: 88.33%
MEAN CORPUSCULAR HEMOGLOBIN [1]: 23.83 pg
MEAN CORPUSCULAR HEMOGLOBIN CONCENTRATION [1]: 37.93 G/DL
MEAN CORPUSCULAR VOLUME [1]: 62.83 fL
MONOCYTE [1]: 2.33%
NEUTROPHIL [1]: 9.33%
NUCLEATED RED BLOOD CELLS [1]: 0 /100WBC
PLATELET COUNT [1]: 1089.33 x10E3/uL
ALANINE AMINOTRANSFERASE [1]: 64.67 u/L
ALBUMIN [1]: 4.07 G/DL
ALKALINE PHOSPHATASE [1]: 401.33 u/L
ASPARTATE AMINOTRANSFERASE [1]: 92.33 u/L
BLOOD UREA NITROGEN [1]: 15.67 mg/dL
CARBON DIOXIDE [1]: 35 mmol/L
CHLORIDE [1]: 98.67 MEQ/L
CHOLESTEROL [1]: 91 mg/dL
CREATINE PHOSPHOKINASE [1]: 525.67 u/L
CREATININE [1]: 0.24 mg/dL
GLUCOSE [1]: 143 mg/dL
LACTATE DEHYDROGENASE [1]: 134.67 u/L
LIPASE [1]: 9 u/L
PHOSPHORUS [1]: 12.2 mg/dL
POTASSIUM [1]: 5.94 MEQ/L
SODIUM [1]: 143.63 MEQ/L
TOTAL BILIRUBIN [1]: 0.23 mg/dL
TOTAL PROTEIN [1]: 6.3 G/DL
URIC ACID [1]: 0.53 mg/dL
ABSOLUTE BASOPHIL [2]: 0 CELLS/uL
ABSOLUTE EOSINOPHIL [2]: 33 CELLS/uL
ABSOLUTE LYMPHOCYTE [2]: 9070.33 CELLS/uL
ABSOLUTE MONOCYTE [2]: 218.67 CELLS/uL
ABSOLUTE SEGMENTED NEUTROPHIL [2]: 878 CELLS/uL
BASOPHIL [2]: 0%
EOSINOPHIL [2]: 0.33%
ERYTHROCYTE COUNT [2]: 5.56 x10E6/uL
HEMATOCRIT [2]: 33.53%
HEMOGLOBIN [2]: 12.97 G/DL
LEUKOCYTE COUNT [2]: 10.2 x10E3/uL
LYMPHOCYTE [2]: 88.67%
MEAN CORPUSCULAR HEMOGLOBIN [2]: 23.37 pg
MEAN CORPUSCULAR HEMOGLOBIN CONCENTRATION [2]: 38.7 G/DL
MEAN CORPUSCULAR VOLUME [2]: 60.37 fL
MONOCYTE [2]: 2%
NEUTROPHIL [2]: 9%
NUCLEATED RED BLOOD CELLS [2]: 0 /100WBC
PLATELET COUNT [2]: 1110.67 x10E3/uL
ALANINE AMINOTRANSFERASE [2]: 48.67 u/L
ALBUMIN [2]: 4.43 G/DL
ALKALINE PHOSPHATASE [2]: 449.67 u/L
ASPARTATE AMINOTRANSFERASE [2]: 74.33 u/L
BLOOD UREA NITROGEN [2]: 15.33 mg/dL
CARBON DIOXIDE [2]: 37 mmol/L
CHLORIDE [2]: 98 MEQ/L
CHOLESTEROL [2]: 89.67 mg/dL
CREATINE PHOSPHOKINASE [2]: 298.67 u/L
CREATININE [2]: 0.34 mg/dL
GLUCOSE [2]: 138.67 mg/dL
LACTATE DEHYDROGENASE [2]: 126 u/L
LIPASE [2]: 7.67 u/L
PHOSPHORUS [2]: 12.27 mg/dL
POTASSIUM [2]: 5.95 MEQ/L
SODIUM [2]: 144.33 MEQ/L
TOTAL BILIRUBIN [2]: 0.23 mg/dL
TOTAL PROTEIN [2]: 6.37 G/DL
URIC ACID [2]: 0.8 mg/dL
ABSOLUTE BASOPHIL [3]: 0 CELLS/uL
ABSOLUTE EOSINOPHIL [3]: 0 CELLS/uL
ABSOLUTE LYMPHOCYTE [3]: 8968.67 CELLS/uL
ABSOLUTE MONOCYTE [3]: 91.33 CELLS/uL
ABSOLUTE SEGMENTED NEUTROPHIL [3]: 740 CELLS/uL
BASOPHIL [3]: 0%
EOSINOPHIL [3]: 0%
ERYTHROCYTE COUNT [3]: 5.3 x10E6/uL
HEMATOCRIT [3]: 32.17%
HEMOGLOBIN [3]: 12.37 G/DL
LEUKOCYTE COUNT [3]: 9.8 x10E3/uL
LYMPHOCYTE [3]: 91.33%
MEAN CORPUSCULAR HEMOGLOBIN [3]: 23.43 pg
MEAN CORPUSCULAR HEMOGLOBIN CONCENTRATION [3]: 38.47 G/DL
MEAN CORPUSCULAR VOLUME [3]: 60.8 fL
MONOCYTE [3]: 1%
NEUTROPHIL [3]: 7.67%
NUCLEATED RED BLOOD CELLS [3]: 0 /100WBC
PLATELET COUNT [3]: 1214 x10E3/uL
ALANINE AMINOTRANSFERASE [3]: 59 u/L
ALBUMIN [3]: 3.67 G/DL
ALKALINE PHOSPHATASE [3]: 384 u/L
ASPARTATE AMINOTRANSFERASE [3]: 87 u/L
BLOOD UREA NITROGEN [3]: 13 mg/dL
CARBON DIOXIDE [3]: 35.33 mmol/L
CHLORIDE [3]: 99 MEQ/L
CHOLESTEROL [3]: 84.33 mg/dL
CREATINE PHOSPHOKINASE [3]: 684.67 u/L
CREATININE [3]: 0.26 mg/dL
GLUCOSE [3]: 138.33 mg/dL
LACTATE DEHYDROGENASE [3]: 131 u/L
LIPASE [3]: 9 u/L
PHOSPHORUS [3]: 11.53 mg/dL
POTASSIUM [3]: 5.74 MEQ/L
SODIUM [3]: 143.93 MEQ/L
TOTAL BILIRUBIN [3]: 0.2 mg/dL
TOTAL PROTEIN [3]: 5.97 G/DL
URIC ACID [3]: 0.37 mg/dL
ABSOLUTE BASOPHIL [4]: 0 CELLS/uL
ABSOLUTE EOSINOPHIL [4]: 32 CELLS/uL
ABSOLUTE LYMPHOCYTE [4]: 12898.67 CELLS/uL
ABSOLUTE MONOCYTE [4]: 145 CELLS/uL
ABSOLUTE SEGMENTED NEUTROPHIL [4]: 424.33 CELLS/uL
BASOPHIL [4]: 0%
EOSINOPHIL [4]: 0.33%
ERYTHROCYTE COUNT [4]: 5.35 x10E6/uL
HEMATOCRIT [4]: 31.83%
HEMOGLOBIN [4]: 12.7 G/DL
LEUKOCYTE COUNT [4]: 13.5 x10E3/uL
LYMPHOCYTE [4]: 95.33%
MEAN CORPUSCULAR HEMOGLOBIN [4]: 23.77 pg
MEAN CORPUSCULAR HEMOGLOBIN CONCENTRATION [4]: 39.9 G/DL
MEAN CORPUSCULAR VOLUME [4]: 59.53 fL
MONOCYTE [4]: 1%
NEUTROPHIL [4]: 3.33%
NUCLEATED RED BLOOD CELLS [4]: 0 /100WBC
PLATELET COUNT [4]: 1130.67 x10E3/uL
ALANINE AMINOTRANSFERASE [4]: 52.33 u/L
ALBUMIN [4]: 3.8 G/DL
ALKALINE PHOSPHATASE [4]: 253 u/L
ASPARTATE AMINOTRANSFERASE [4]: 80.33 u/L
BLOOD UREA NITROGEN [4]: 13.67 mg/dL
CARBON DIOXIDE [4]: 33.33 mmol/L
CHLORIDE [4]: 100.33 MEQ/L
CHOLESTEROL [4]: 76.67 mg/dL
CREATINE PHOSPHOKINASE [4]: 375.67 u/L
CREATININE [4]: 0.32 mg/dL
GLUCOSE [4]: 145 mg/dL
LACTATE DEHYDROGENASE [4]: 188.33 u/L
LIPASE [4]: 8.33 u/L
PHOSPHORUS [4]: 11.47 mg/dL
POTASSIUM [4]: 5.93 MEQ/L
SODIUM [4]: 145.13 MEQ/L
TOTAL BILIRUBIN [4]: 0.2 mg/dL
TOTAL PROTEIN [4]: 5.77 G/DL
URIC ACID [4]: 0.83 mg/dL
